One block for each compound: values may come before it.
Assays:
[1] = test system: Human immunodeficiency virus 1; experiment: Antiviral activity against R5 tropic HIV1 BaL infected in human JC53-BL cells expressing CCR5 after 2 days by cell-cell fusion assay; assay type: functional, organism-based; settings: Human immunodeficiency virus 1, BaL, JC53BL, 48 h
[2] = biological target: C-C chemokine receptor type 5 (Homo sapiens, UniProt P51681); experiment: Antagonist activity at CCR5 receptor by radiolabeled RANTES binding assay
[3] = Metabolic stability in human liver microsomes assessed as clearance; assay type: ADME, Microsome
[4] = biological target: T1, C-C chemokine receptor type 1 (Homo sapiens, UniProt P32246); experiment: Inhibition of CCR1 receptor
T1 sequence (P32246 whole entry): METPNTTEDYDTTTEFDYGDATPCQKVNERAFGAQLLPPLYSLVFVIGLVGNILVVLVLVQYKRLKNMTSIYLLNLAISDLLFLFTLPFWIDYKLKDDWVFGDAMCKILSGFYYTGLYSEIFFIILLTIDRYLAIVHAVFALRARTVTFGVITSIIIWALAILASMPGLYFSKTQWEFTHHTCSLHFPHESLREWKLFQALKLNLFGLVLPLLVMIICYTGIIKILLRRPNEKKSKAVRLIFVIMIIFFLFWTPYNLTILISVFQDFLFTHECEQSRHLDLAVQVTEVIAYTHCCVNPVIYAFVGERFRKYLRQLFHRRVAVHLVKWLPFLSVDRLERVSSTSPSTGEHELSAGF

[5] = AUC in rat at 0.5 mg/kg, iv; assay type: ADME, organism-based; design: dose 0.5 mg/kg, route intravenous; settings: plasma
[6] = biological target: T2, C-C chemokine receptor type 3 (Homo sapiens, UniProt P51677); experiment: Inhibition of CCR3 receptor
T2 sequence (P51677 whole entry): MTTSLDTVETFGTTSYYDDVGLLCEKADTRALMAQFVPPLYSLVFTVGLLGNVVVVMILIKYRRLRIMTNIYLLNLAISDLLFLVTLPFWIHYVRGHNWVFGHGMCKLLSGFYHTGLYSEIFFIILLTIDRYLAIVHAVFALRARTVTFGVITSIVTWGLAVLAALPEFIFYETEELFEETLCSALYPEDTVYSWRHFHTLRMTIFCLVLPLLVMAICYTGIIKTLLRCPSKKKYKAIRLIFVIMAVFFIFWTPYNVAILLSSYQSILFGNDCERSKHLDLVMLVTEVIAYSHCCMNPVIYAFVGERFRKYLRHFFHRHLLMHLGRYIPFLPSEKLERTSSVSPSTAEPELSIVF

[7] = Mean retention time in rat at 2 mg/kg, po; assay type: ADME, organism-based; design: dose 2 mg/kg, route oral; settings: in vivo
[8] = test system: Human immunodeficiency virus 1; experiment: Inhibition of R5 tropic HIV1 BaL replication in human PBMC; assay type: functional, organism-based; settings: Human immunodeficiency virus 1, BaL
[9] = Mean retention time in rat at 0.5 mg/kg, iv; assay type: ADME, organism-based; design: dose 0.5 mg/kg, route intravenous; settings: in vivo
Rattus norvegicus [10] = experiment: AUC in rat at 2 mg/kg, po; assay type: ADME, organism-based, Plasma; design: dose 2 mg/kg, route oral; settings: in vivo
[11] = Clearance in rat at 0.5 mg/kg, iv; assay type: ADME, organism-based; design: dose 0.5 mg/kg, route intravenous; settings: in vivo
[12] = Half life in rat at 0.5 mg/kg, iv; assay type: ADME, organism-based; design: dose 0.5 mg/kg, route intravenous; settings: in vivo
[13] = Oral bioavailability in rat at 2 mg/kg; assay type: ADME, organism-based; settings: in vivo
[14] = biological target: C-X-C chemokine receptor type 4 (Homo sapiens, UniProt P61073); experiment: Inhibition of CXCR4 receptor
[15] = biological target: T3, C-C chemokine receptor type 6 (Homo sapiens, UniProt P51684); experiment: Inhibition of CCR6 receptor
T3 sequence (P51684 whole entry): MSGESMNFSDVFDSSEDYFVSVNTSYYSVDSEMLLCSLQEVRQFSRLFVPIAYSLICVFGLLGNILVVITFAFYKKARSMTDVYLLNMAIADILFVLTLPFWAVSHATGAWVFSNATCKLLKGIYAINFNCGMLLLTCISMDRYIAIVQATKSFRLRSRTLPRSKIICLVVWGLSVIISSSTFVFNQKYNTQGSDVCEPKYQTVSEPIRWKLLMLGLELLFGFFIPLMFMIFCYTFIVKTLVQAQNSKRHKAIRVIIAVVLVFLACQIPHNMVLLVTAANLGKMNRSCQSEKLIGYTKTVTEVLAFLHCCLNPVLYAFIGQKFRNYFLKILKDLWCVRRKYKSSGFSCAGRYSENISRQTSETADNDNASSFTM

[16] = biological target: C-C chemokine receptor type 2 (Homo sapiens, UniProt P41597); experiment: Inhibition of CCR2 receptor
hERG (KCNH2) = hERG (KCNH2) (Homo sapiens, UniProt Q12809); experiment: Inhibition of human ERG receptor
Rattus norvegicus [17] = experiment: Cmax in rat at 2 mg/kg, po; assay type: ADME, organism-based; design: dose 2 mg/kg, route oral; settings: in vivo
Rattus norvegicus [18] = experiment: Half life in rat at 2 mg/kg, po; assay type: ADME, organism-based; design: dose 2 mg/kg, route oral; settings: in vivo
[19] = biological target: T4, C-C chemokine receptor type 4 (Homo sapiens, UniProt P51679); experiment: Inhibition of CCR4 receptor
T4 sequence (P51679 whole entry): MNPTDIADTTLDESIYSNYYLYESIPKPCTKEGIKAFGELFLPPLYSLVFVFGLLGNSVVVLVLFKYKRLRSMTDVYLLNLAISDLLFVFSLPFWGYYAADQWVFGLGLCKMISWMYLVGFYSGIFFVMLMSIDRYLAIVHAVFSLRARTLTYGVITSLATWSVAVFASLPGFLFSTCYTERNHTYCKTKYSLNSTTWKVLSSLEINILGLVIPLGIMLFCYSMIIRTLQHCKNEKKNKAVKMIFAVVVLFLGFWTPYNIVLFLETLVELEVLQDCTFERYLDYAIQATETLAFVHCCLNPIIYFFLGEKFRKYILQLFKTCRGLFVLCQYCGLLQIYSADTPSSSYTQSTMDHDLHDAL

[20] = Volume of distribution at steady state in rat at 0.5 mg/kg, iv; assay type: ADME, organism-based; design: dose 0.5 mg/kg, route intravenous; settings: in vivo, read-out: Vdss
Rattus norvegicus [21] = experiment: Tmax in rat at 2 mg/kg, po; assay type: ADME, organism-based; design: dose 2 mg/kg, route oral; settings: in vivo

Sequence of C-C chemokine receptor type 5 (P51681 whole entry): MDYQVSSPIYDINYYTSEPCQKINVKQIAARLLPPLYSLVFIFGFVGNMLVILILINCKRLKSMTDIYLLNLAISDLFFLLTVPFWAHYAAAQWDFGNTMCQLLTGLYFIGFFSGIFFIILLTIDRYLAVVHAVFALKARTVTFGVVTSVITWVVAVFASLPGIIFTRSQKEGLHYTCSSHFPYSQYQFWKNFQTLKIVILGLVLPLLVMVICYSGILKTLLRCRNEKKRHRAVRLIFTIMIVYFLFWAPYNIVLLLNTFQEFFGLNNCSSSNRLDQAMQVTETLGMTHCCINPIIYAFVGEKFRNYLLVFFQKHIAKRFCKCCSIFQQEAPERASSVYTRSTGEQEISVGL
Sequence of hERG (KCNH2) (Q12809 whole entry): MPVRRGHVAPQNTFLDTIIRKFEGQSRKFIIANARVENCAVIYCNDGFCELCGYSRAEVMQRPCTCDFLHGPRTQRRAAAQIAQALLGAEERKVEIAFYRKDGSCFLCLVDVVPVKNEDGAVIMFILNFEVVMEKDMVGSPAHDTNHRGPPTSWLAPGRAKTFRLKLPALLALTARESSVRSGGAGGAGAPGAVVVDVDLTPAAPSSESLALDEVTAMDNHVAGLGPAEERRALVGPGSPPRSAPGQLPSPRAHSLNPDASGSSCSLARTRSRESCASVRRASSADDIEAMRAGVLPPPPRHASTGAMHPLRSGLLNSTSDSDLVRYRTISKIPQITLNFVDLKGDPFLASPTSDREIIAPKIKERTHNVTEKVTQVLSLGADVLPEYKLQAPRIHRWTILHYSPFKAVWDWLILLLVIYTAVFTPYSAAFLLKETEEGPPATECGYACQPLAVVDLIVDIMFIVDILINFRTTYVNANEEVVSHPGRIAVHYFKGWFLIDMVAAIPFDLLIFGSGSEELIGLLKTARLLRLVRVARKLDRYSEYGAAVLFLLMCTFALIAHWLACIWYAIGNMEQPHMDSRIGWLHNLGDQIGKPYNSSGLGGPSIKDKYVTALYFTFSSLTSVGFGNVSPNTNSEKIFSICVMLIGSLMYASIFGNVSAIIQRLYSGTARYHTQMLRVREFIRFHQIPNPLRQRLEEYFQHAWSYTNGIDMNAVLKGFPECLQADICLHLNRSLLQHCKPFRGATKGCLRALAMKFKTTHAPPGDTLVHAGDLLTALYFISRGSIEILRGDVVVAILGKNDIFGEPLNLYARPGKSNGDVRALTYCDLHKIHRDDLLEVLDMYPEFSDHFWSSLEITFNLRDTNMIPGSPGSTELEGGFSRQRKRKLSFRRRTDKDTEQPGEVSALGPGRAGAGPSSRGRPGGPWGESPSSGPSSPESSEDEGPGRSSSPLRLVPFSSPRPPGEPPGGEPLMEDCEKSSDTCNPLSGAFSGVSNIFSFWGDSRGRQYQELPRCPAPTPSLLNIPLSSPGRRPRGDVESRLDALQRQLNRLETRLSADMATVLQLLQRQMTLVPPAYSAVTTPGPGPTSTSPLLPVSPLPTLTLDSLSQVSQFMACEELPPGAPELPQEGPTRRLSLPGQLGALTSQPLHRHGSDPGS
Sequence of C-C chemokine receptor type 2 (P41597 whole entry): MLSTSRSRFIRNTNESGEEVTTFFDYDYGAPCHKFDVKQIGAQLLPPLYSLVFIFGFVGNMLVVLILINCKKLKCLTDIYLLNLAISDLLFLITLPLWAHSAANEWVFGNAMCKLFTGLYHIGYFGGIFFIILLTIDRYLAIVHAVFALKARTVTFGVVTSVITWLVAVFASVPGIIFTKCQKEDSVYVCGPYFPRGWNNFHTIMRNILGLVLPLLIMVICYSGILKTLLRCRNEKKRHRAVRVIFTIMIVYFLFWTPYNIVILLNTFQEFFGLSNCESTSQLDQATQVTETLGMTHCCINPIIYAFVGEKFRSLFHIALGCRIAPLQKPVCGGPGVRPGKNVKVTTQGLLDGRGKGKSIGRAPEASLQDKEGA
Sequence of C-X-C chemokine receptor type 4 (P61073 whole entry): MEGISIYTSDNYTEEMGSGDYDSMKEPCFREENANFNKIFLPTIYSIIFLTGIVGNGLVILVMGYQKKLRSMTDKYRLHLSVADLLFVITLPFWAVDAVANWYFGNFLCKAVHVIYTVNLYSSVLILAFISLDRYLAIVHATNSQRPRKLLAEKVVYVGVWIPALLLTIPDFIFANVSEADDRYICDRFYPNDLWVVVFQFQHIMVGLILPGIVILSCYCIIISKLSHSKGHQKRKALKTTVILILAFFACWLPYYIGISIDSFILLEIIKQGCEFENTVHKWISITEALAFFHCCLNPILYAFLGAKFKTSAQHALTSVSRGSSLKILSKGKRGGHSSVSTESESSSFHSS

- IC50 [1]: 4 nM
- microsomal CLint [3]: 310 µL/min/mg
- IC50 [2]: 18 nM
Compound: CCCCC1CN(S(=O)(=O)c2ccccn2)CCC12CCN(C1(C)CCN(C(=O)c3c(C)ncnc3C)CC1)CC2 (configuration not stated)

- IC50 [1]: < 1 nM
- microsomal CLint [3]: 773 µL/min/mg
- IC50 [2]: 19 nM
Compound: CCCCC1CN(S(=O)(=O)c2ccccc2)CCC12CCN(C1(C)CCN(C(=O)c3c(C)ncnc3C)CC1)CC2 (configuration not stated)

- IC50 [1]: 7 nM
- microsomal CLint [3]: 96 µL/min/mg
- IC50 [2]: 27 nM
Compound: CCCCC1CN(S(=O)(=O)c2cn(C)cn2)CCC12CCN(C1(C)CCN(C(=O)c3c(C)ncnc3C)CC1)CC2 (configuration not stated)

- IC50 [1]: 6 nM
- microsomal CLint [3]: 280 µL/min/mg
- IC50 [2]: 22 nM
Compound: CCCCC1CN(S(=O)(=O)C2CCOCC2)CCC12CCN(C1(C)CCN(C(=O)c3c(C)ncnc3C)CC1)CC2 (configuration not stated)

- IC50 [1]: 10 nM
- microsomal CLint [3]: 70 µL/min/mg
- IC50 [2]: 78 nM
Compound: CCCCC1CN(S(=O)(=O)C2CCN(C(C)=O)CC2)CCC12CCN(C1(C)CCN(C(=O)c3c(C)ncnc3C)CC1)CC2 (configuration not stated)

- IC50 [1]: 3 nM
- microsomal CLint [3]: 53 µL/min/mg
- IC50 [2]: 19 nM
Compound: CCCC[C@H]1CN(S(=O)(=O)CC(F)(F)F)CCC12CCN(C1(C)CCN(C(=O)c3c(C)ncnc3C)CC1)CC2

- IC50 [1]: 400 nM
- IC50 [2]: 80 nM
Compound: CCCOC1CN(S(=O)(=O)C2CC2)CCC12CCN(C1(C)CCN(C(=O)c3c(C)ncnc3C)CC1)CC2 (configuration not stated)

- IC50 [1]: 1900 nM
- IC50 [2]: 104 nM
Compound: Cc1ncnc(C)c1C(=O)N1CCC(C)(N2CCC3(CC2)CCN(S(C)(=O)=O)CC3c2ccccc2)CC1 (configuration not stated)

- IC50 [1]: 100 nM
- microsomal CLint [3]: 7 µL/min/mg
- IC50 [2]: 25 nM
Compound: CCCCC1CN(S(C)(=O)=O)CCC12CCN(C1(C)CCN(C(=O)c3c(C)ncnc3C)CC1)CC2 (configuration not stated)

- IC50 [1]: 7 nM
- microsomal CLint [3]: 100 µL/min/mg
- IC50 [2]: 22 nM
Compound: CCCCC1CN(S(=O)(=O)C2CC2)CCC12CCN(C1(C)CCN(C(=O)c3c(C)ncnc3C)CC1)CC2 (configuration not stated)

- IC50 [1]: 1 nM
- microsomal CLint [3]: 276 µL/min/mg
- IC50 [2]: 11 nM
Compound: CCCCC1CN(S(=O)(=O)N2CCOCC2)CCC12CCN(C1(C)CCN(C(=O)c3c(C)ncnc3C)CC1)CC2 (configuration not stated)

- IC50 [1]: 14 nM
- microsomal CLint [3]: 60 µL/min/mg
- IC50 [2]: 64 nM
Compound: CCCCC1CN(S(=O)(=O)C2CCN(C=O)CC2)CCC12CCN(C1(C)CCN(C(=O)c3c(C)ncnc3C)CC1)CC2 (configuration not stated)

- IC50 [1]: 4 nM
- IC50 [2]: 35 nM
Compound: CCCC[C@H]1CN(C(=O)NC)CCC12CCN(C1(C)CCN(C(=O)c3c(C)ncnc3C)CC1)CC2

- IC50 [1]: 7 nM
- microsomal CLint [3]: 207 µL/min/mg
- IC50 [2]: 60 nM
Compound: CCCCC1CN(S(=O)(=O)N(C)C)CCC12CCN(C1(C)CCN(C(=O)c3c(C)ncnc3C)CC1)CC2 (configuration not stated)

Further lines, the compound ahead of its results:

Compound: CCCCC1C(=O)N(C[C@H]2CC[C@H](O)CC2)CCC12CCN(C1(C)CCN(C(=O)c3c(C)cc(C#N)nc3C)CC1)CC2 (some centres not stated)
- IC50 [1]: < 2.5 nM
- IC50 [2]: 31 nM

Compound: CCCCC1C(=O)N(C[C@H]2CC[C@H](O)CC2)CCC12CCN(C1(C)CCN(C(=O)c3c(C)ncnc3C)CC1)CC2 (some centres not stated)
- IC50 [1]: 10 nM
- IC50 [2]: 76 nM

Compound: CCCCC1C(=O)N(CC2CCN(CC(F)F)CC2)CCC12CCN(C1(C)CCN(C(=O)c3c(C)ncnc3C)CC1)CC2 (configuration not stated)
- IC50 [1]: 26 nM
- IC50 [2]: 70 nM

Compound: CCCCC1C(=O)N(C[C@H]2CC[C@H](OCC)CC2)CCC12CCN(C1(C)CCN(C(=O)c3c(C)ncnc3C)CC1)CC2 (some centres not stated)
- IC50 [1]: 5 nM
- IC50 [4]: > 50 µM
- AUC [5]: 334 ng·h/mL
- IC50 [6]: > 50 µM
- MRT [7]: 4.33 h
- IC50 [8]: 1.4 nM
- IC90 [8]: 7.5 nM
- MRT [9]: 2.65 h
- AUC (Rattus norvegicus [10]): 910 ng·h/mL
- clearance [11]: 24.1 mL/min/kg
- half-life [12]: 228 min
- bioavailability [13]: 66%
- IC50 [14]: > 50 µM
- IC50 [15]: > 50 µM
- IC50 [2]: 30 nM
- IC50 [16]: > 50 µM
- IC20 (hERG (KCNH2)): 3000 nM
- Cmax (Rattus norvegicus [17]): 2.03 ng/mL
- t1/2 (Rattus norvegicus [18]): 4.19 h
- IC50 [19]: > 50 µM
- Vd [20]: 4.71 L/kg
- Tmax (Rattus norvegicus [21]): 1 h

Compound: CCCCC1C(=O)N(Cc2ccc(F)cc2)CCC12CCN(C1(C)CCN(C(=O)c3c(C)ncnc3C)CC1)CC2 (configuration not stated)
- IC50 [1]: 100 nM
- IC50 [2]: 19 nM

Compound: CCCCC1C(=O)N(CC2CCOCC2)CCC12CCN(C1(C)CCN(C(=O)c3c(C)ncnc3C)CC1)CC2 (configuration not stated)
- IC50 [1]: 4 nM
- IC50 [2]: 30 nM

Compound: CCCCC1CN(CC2CCOCC2)CCC12CCN(C1(C)CCN(C(=O)c3c(C)ncnc3C)CC1)CC2 (configuration not stated)
- IC50 [1]: > 5000 nM
- IC50 [2]: > 500 nM

Compound: CCCCC1CN(C(=O)OC2CCOCC2)CCC12CCN(C1(C)CCN(C(=O)c3c(C)ncnc3C)CC1)CC2 (configuration not stated)
- IC50 [1]: > 5000 nM
- IC50 [2]: 349 nM

Compound: CCCCC1C(=O)N(CC2CCN(C(=O)OC)CC2)CCC12CCN(C1(C)CCN(C(=O)c3c(C)ncnc3C)CC1)CC2 (configuration not stated)
- IC50 [1]: 8 nM
- IC50 [2]: 60 nM

Compound: CCCCC1C(=O)N(C[C@H]2CC[C@H](OC)CC2)CCC12CCN(C1(C)CCN(C(=O)c3c(C)ncnc3C)CC1)CC2 (some centres not stated)
- IC50 [1]: 6 nM
- IC50 [2]: 37 nM

Compound: CCCC[C@H]1C(=O)N(C[C@H]2CC[C@H](OCC)CC2)CCC12CCN(C1(C)CCN(C(=O)c3c(C)ncnc3C)CC1)CC2
- IC50 [8]: 0.8 nM
- IC90 [8]: 4 nM

Compound: CCCCC1CN(C(=O)C2CCOCC2)CCC12CCN(C1(C)CCN(C(=O)c3c(C)cc(C#N)nc3C)CC1)CC2 (configuration not stated)
- IC50 [1]: 170 nM
- IC50 [2]: 217 nM

Compound: CCCC[C@@H]1C(=O)N(C[C@H]2CC[C@H](OCC)CC2)CCC12CCN(C1(C)CCN(C(=O)c3c(C)ncnc3C)CC1)CC2
- IC50 [8]: 0.5 nM
- IC90 [8]: 3 nM

Compound: CCCCC1CN(C(=O)C2CCOCC2)CCC12CCN(C1(C)CCN(C(=O)c3c(C)ncnc3C)CC1)CC2 (configuration not stated)
- IC50 [1]: > 5000 nM
- IC50 [2]: > 500 nM

Reference: ChEMBL document CHEMBL1139267, “Discovery of a potent, selective and orally bioavailable 3,9-diazaspiro[5.5]undeca-2-one CCR5 antagonist” (Bioorg Med Chem Lett, 2009)
